The nature of data set [1]: Solubility test at 10 mg/mL (visual inspection and light scattering). The data set is classed as physicochemical. Particulars: for Solubility, Condition 1: Acetate pH 4; for Solubility, Condition 2: Acetate pH 5; for Solubility, Condition 3: Phosphate pH 6; for Solubility, Condition 4: Phosphate pH 7; for Solubility, Condition 5: Phosphate pH 7.5.
Data set [2] deals with classical complement pathway. As to the kind of experiment: In vitro haemolysis assay (inhibition of classical complement pathway). It counts as cell-based, human. Particulars: human serum, sensitized sheep red blood cells. The method, boiled down: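 Compound dilutions preincubated 15 min at room temperature with diluted human serum (titrated per batch for 70-90% maximal haemolysis), then antibody-sensitized sheep RBC (10^7/well) added for 30 min at 37 °C in Tris/casein buffer, pH 7.4. Stopped with EDTA; haemolysis read at 405 nm; IC50 by 4PL fit.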

Where [3] appears, read: Table 3, given as upper bounds, read-out: IC50, inhibition of hemolysis.

Where two headings read alike, the source gives them in different places. Positions of bridges follow the written chain, without caps; N, C: chain ends. Non-standard residues stand in square brackets, D forms with d. Residues, ends and D or L forms follow the SMILES beside them. Trp(1-Me) = Cn1cc(C[C@H](N)C(=O)O)c2ccccc21; 2Nal = N[C@@H](Cc1ccc2ccccc2c1)C(=O)O; Sar = CNCC(=O)O Some results are limits rather than exact numbers.

Regarding `CC[C@H](C)[C@H](NC(=O)[C@H](C)NC(=O)[C@H](CO)NC(=O)CNC(=O)[C@H](CCC(=O)O)NC(C)=O)C(=O)N[C@H]1CSSC[C@@H](C(=O)N(C)CC(=O)N[C@@H](CCC(=O)O)C(N)=O)NC(=O)[C@H](CCCNC(=N)N)NC(=O)[C@H](Cc2c[nH]cn2)NC(=O)[C@H](CCC(=O)O)NC(=O)CNC(=O)[C@H](Cc2c[nH]c3ccccc23)NC(=O)[C@H](CC(=O)O)NC(=O)[C@H](CCC(N)=O)NC(=O)[C@H](Cc2cn(C)c3ccccc23)NC(=O)[C@H]([C@@H](C)CC)NC1=O` [Compound 49] (Ac-EGSAICI[Trp(1-Me)]QDWGEHRC[Sar]E-NH2; disulfide 6-16), in data set [1], the “Solubility, Condition 1” value is reported as “− (“−” denotes lack of solubility at the given condition, as UV absorbance at 340 nm exceeds 0.1 AU and/or it is visibly turbid or contains particles)”; the “Solubility, Condition 2” value is on record as “− (“−” denotes lack of solubility at the given condition, as UV absorbance at 340 nm exceeds 0.1 AU and/or it is visibly turbid or contains particles)”; the “Solubility, Condition 3” value is “+ (“+” denotes solubility at the given condition, as determined by UV absorbance being less than 0.1 AU at 340 nm and the sample being clear when manually inspected)”; the “Solubility, Condition 4” value is “+ (“+” denotes solubility at the given condition, as determined by UV absorbance being less than 0.1 AU at 340 nm and the sample being clear when manually inspected)”. For the same compound, the “Solubility, Condition 5” value in data set [1] was “+ (“+” denotes solubility at the given condition, as determined by UV absorbance being less than 0.1 AU at 340 nm and the sample being clear when manually inspected)”. In data set [2] (setting [3]), the IC50 is less than 100 nM.

In the case of `CC[C@H](C)[C@@H]1NC(=O)[C@@H](NC(=O)[C@H](Cc2ccccc2)NC(=O)[C@H](CCC(=O)O)NC(=O)[C@H](CO)NC(C)=O)CSSC[C@@H](C(=O)N[C@H](C(=O)N[C@@H](CCC(=O)O)C(=O)N[C@@H](C)C(N)=O)[C@@H](C)O)NC(=O)[C@H](CCCNC(=N)N)NC(=O)[C@H](Cc2c[nH]cn2)NC(=O)[C@H](CCC(=O)O)NC(=O)CN(C)C(=O)[C@H](Cc2c[nH]c3ccccc23)NC(=O)[C@H](CC(=O)O)NC(=O)[C@H](CCC(N)=O)NC(=O)[C@H](Cc2cn(C)c3ccccc23)NC1=O` [Compound 77, Ac-SEFC(1)I[1-Me-Trp]QDW[Sar]EHRC(1)TEA-NH2] (Ac-SEFCI[Trp(1-Me)]QDW[Sar]EHRCTEA-NH2; disulfide 4-14), in data set [1], the “Solubility, Condition 1” value is reported as “− (“−” denotes lack of solubility at the given condition, as UV absorbance at 340 nm exceeds 0.1 AU and/or it is visibly turbid or contains particles)”; the “Solubility, Condition 2” value is “− (“−” denotes lack of solubility at the given condition, as UV absorbance at 340 nm exceeds 0.1 AU and/or it is visibly turbid or contains particles)”; the “Solubility, Condition 3” value is “+ (“+” denotes solubility at the given condition, as determined by UV absorbance being less than 0.1 AU at 340 nm and the sample being clear when manually inspected)”; the “Solubility, Condition 4” value is “+ (“+” denotes solubility at the given condition, as determined by UV absorbance being less than 0.1 AU at 340 nm and the sample being clear when manually inspected)”. The “Solubility, Condition 5” value in data set [1] is “+ (“+” denotes solubility at the given condition, as determined by UV absorbance being less than 0.1 AU at 340 nm and the sample being clear when manually inspected)”. In addition, the IC50 in data set [2] (setting [3]) is less than 100 nM.

Regarding `CC[C@H](C)[C@@H]1NC(=O)[C@@H](NC(=O)CN(C)C(=O)[C@H](CCC(=O)O)NC(=O)[C@H](CO)NC(C)=O)CSSC[C@@H](C(=O)N(C)CC(=O)N[C@@H](CCC(=O)O)C(=O)N[C@@H](C)C(N)=O)NC(=O)[C@H](CCCNC(=N)N)NC(=O)[C@H](Cc2c[nH]cn2)NC(=O)[C@H](CCC(=O)O)NC(=O)CNC(=O)[C@H](Cc2c[nH]c3ccccc23)NC(=O)[C@H](CC(=O)O)NC(=O)[C@H](CCC(N)=O)NC(=O)[C@H](Cc2cn(C)c3ccccc23)NC1=O` [Compound 81] (Ac-SE[Sar]CI[Trp(1-Me)]QDWGEHRC[Sar]EA-NH2; disulfide 4-14), in data set [1], the “Solubility, Condition 1” value was “− (“−” denotes lack of solubility at the given condition, as UV absorbance at 340 nm exceeds 0.1 AU and/or it is visibly turbid or contains particles)”; the “Solubility, Condition 2” value is on record as “− (“−” denotes lack of solubility at the given condition, as UV absorbance at 340 nm exceeds 0.1 AU and/or it is visibly turbid or contains particles)”; the “Solubility, Condition 3” value is “+ (“+” denotes solubility at the given condition, as determined by UV absorbance being less than 0.1 AU at 340 nm and the sample being clear when manually inspected)”; the “Solubility, Condition 4” value was “+ (“+” denotes solubility at the given condition, as determined by UV absorbance being less than 0.1 AU at 340 nm and the sample being clear when manually inspected)”. In addition, the “Solubility, Condition 5” value in data set [1] is “+ (“+” denotes solubility at the given condition, as determined by UV absorbance being less than 0.1 AU at 340 nm and the sample being clear when manually inspected)”. In addition, the half-maximal inhibitory concentration (IC50) in data set [2] (setting [3]) is less than 100 nM.

`CC[C@H](C)[C@H](NC(=O)[C@H](C)NC(=O)[C@H](CO)NC(C)=O)C(=O)N[C@H]1CSSC[C@@H](C(=O)N(C)CC(=O)N[C@@H](CCC(=O)O)C(N)=O)NC(=O)[C@H](CCCNC(=N)N)NC(=O)[C@H](Cc2c[nH]cn2)NC(=O)[C@H](CCC(=O)O)NC(=O)CNC(=O)[C@H](Cc2c[nH]c3ccccc23)NC(=O)[C@H](CC(=O)O)NC(=O)[C@H](CCC(N)=O)NC(=O)[C@H](Cc2c[nH]c3ccccc23)NC(=O)[C@H]([C@@H](C)CC)NC1=O` [Compound 41] (Ac-SAICIWQDWGEHRC[Sar]E-NH2; disulfide 4-14): in data set [1], the “Solubility, Condition 1” value is listed as “− (“−” denotes lack of solubility at the given condition, as UV absorbance at 340 nm exceeds 0.1 AU and/or it is visibly turbid or contains particles)”; the “Solubility, Condition 2” value was “− (“−” denotes lack of solubility at the given condition, as UV absorbance at 340 nm exceeds 0.1 AU and/or it is visibly turbid or contains particles)”; the “Solubility, Condition 3” value is “+ (“+” denotes solubility at the given condition, as determined by UV absorbance being less than 0.1 AU at 340 nm and the sample being clear when manually inspected)”; the “Solubility, Condition 4” value was “+ (“+” denotes solubility at the given condition, as determined by UV absorbance being less than 0.1 AU at 340 nm and the sample being clear when manually inspected)”. Moreover, the “Solubility, Condition 5” value in data set [1] is “+ (“+” denotes solubility at the given condition, as determined by UV absorbance being less than 0.1 AU at 340 nm and the sample being clear when manually inspected)”. Also, the IC50 in data set [2] (setting [3]) was less than 250 nM.

In the case of `CC[C@H](C)[C@@H]1NC(=O)[C@@H](NC(=O)[C@H](Cc2ccccc2)NC(=O)[C@H](C)NC(=O)[C@H](CO)NC(=O)CNC(=O)[C@H](CCC(=O)O)NC(C)=O)CSSC[C@@H](C(=O)N[C@H](C(=O)N[C@@H](CCC(=O)O)C(N)=O)[C@@H](C)O)NC(=O)[C@H](CCCNC(=N)N)NC(=O)[C@H](Cc2c[nH]cn2)NC(=O)[C@H](CCC(=O)O)NC(=O)CNC(=O)[C@H](Cc2c[nH]c3ccccc23)NC(=O)[C@H](CC(=O)O)NC(=O)[C@H](CCC(N)=O)NC(=O)[C@H](Cc2ccc3ccccc3c2)NC1=O` [Compound 60] (Ac-EGSAFCI[2Nal]QDWGEHRCTE-NH2; disulfide 6-16), in data set [1], the “Solubility, Condition 1” value was “− (“−” denotes lack of solubility at the given condition, as UV absorbance at 340 nm exceeds 0.1 AU and/or it is visibly turbid or contains particles)”; the “Solubility, Condition 2” value is “− (“−” denotes lack of solubility at the given condition, as UV absorbance at 340 nm exceeds 0.1 AU and/or it is visibly turbid or contains particles)”; the “Solubility, Condition 3” value was “+ (“+” denotes solubility at the given condition, as determined by UV absorbance being less than 0.1 AU at 340 nm and the sample being clear when manually inspected)”; the “Solubility, Condition 4” value was “+ (“+” denotes solubility at the given condition, as determined by UV absorbance being less than 0.1 AU at 340 nm and the sample being clear when manually inspected)”. Also, in data set [1], the “Solubility, Condition 5” value is “+ (“+” denotes solubility at the given condition, as determined by UV absorbance being less than 0.1 AU at 340 nm and the sample being clear when manually inspected)”. Moreover, in data set [2] (setting [3]), the IC50 is less than 100 nM.

As for `CC[C@H](C)[C@H](NC(C)=O)C(=O)N[C@H]1CSSC[C@@H](C(=O)N[C@H](C(N)=O)[C@@H](C)O)NC(=O)[C@H](CCCNC(=N)N)NC(=O)[C@H](Cc2c[nH]cn2)NC(=O)[C@H](C)NC(=O)CNC(=O)[C@H](Cc2c[nH]c3ccccc23)NC(=O)[C@H](CC(=O)O)NC(=O)[C@H](CCC(N)=O)NC(=O)[C@H](Cc2c[nH]c3ccccc23)NC(=O)[C@H]([C@@H](C)CC)NC1=O` [Compound 1] (Ac-ICIWQDWGAHRCT-NH2; disulfide 2-12), in data set [1], the “Solubility, Condition 1” value was “+ (“+” denotes solubility at the given condition, as determined by UV absorbance being less than 0.1 AU at 340 nm and the sample being clear when manually inspected)”; the “Solubility, Condition 2” value is on record as “− (“−” denotes lack of solubility at the given condition, as UV absorbance at 340 nm exceeds 0.1 AU and/or it is visibly turbid or contains particles)”; the “Solubility, Condition 3” value is recorded as “− (“−” denotes lack of solubility at the given condition, as UV absorbance at 340 nm exceeds 0.1 AU and/or it is visibly turbid or contains particles)”; the “Solubility, Condition 4” value was “− (“−” denotes lack of solubility at the given condition, as UV absorbance at 340 nm exceeds 0.1 AU and/or it is visibly turbid or contains particles)”. In addition, in data set [1], the “Solubility, Condition 5” value is on record as “− (“−” denotes lack of solubility at the given condition, as UV absorbance at 340 nm exceeds 0.1 AU and/or it is visibly turbid or contains particles)”. Further, the concentration for half-maximal inhibition (IC50) in data set [2] (Table 2, read-out: CP hemolysis IC50) was 150 nM. For the same compound, the IC50 in data set [2] (setting [3]) was less than 250 nM.

In general, IC50 refers to the concentration that gives 50% inhibition.

The values are drawn from patent US11965039B2, “Compstatin analogues and their medical uses” (priority 2018, dated 2024).
